14 compounds from US20230131966A1, “FUNGICIDAL AMIDES” (FMC Corporation, priority 2020, published 2023) can be followed below.

What all share (type): in vivo
The test system of assay [1] is Erysiphe graminis f. sp. tritici. Kind of assay: Test G: wheat powdery mildew control on wheat seedlings. To be noted: 100 = 100% disease control, 0 = no control; for pest or weed control at 250 ppm / Test G disease control rating: 250 ppm.
For another assay, the system named is Phakopsora pachyrhizi. Description: Test A: Asian soybean rust control on soybean seedlings. To be noted: soybean seedlings, 100 = 100% disease control, 0 = no control; for pest or weed control at 250 ppm / Test A disease control rating: 250 ppm.
Another assay relates to Plasmopara viticola. Kind of assay: Test D: grape downy mildew control on grape seedlings. To be noted: 100 = 100% disease control, 0 = no control; for pest or weed control at 250 ppm / Test D disease control rating: 250 ppm.
The subject of assay [2] is Puccinia recondita f. sp. tritici. Description: Test B: wheat leaf rust control on wheat seedlings. As to conditions: wheat seedlings, 100 = 100% disease control, 0 = no control; for pest or weed control at 250 ppm / Test B disease control rating: 250 ppm.
A further assay concerns Zymoseptoria tritici. Description: Test C: wheat leaf blotch control on wheat seedlings. To be noted: wheat seedlings, 100 = 100% disease control, 0 = no control; for pest or weed control at 250 ppm / Test C disease control rating: 250 ppm.
In another assay the test system is Phytophthora infestans. Kind of assay: whole plant or invertebrate. To be noted: tomato seedlings, 100 = 100% disease control, 0 = no control; for pest or weed control at 250 ppm: read-out: Test F disease control rating, 250 ppm; for Test F disease control rating: 250 ppm.
In the next assay the test system is Botrytis cinerea. Description: Test E: tomato Botrytis control on tomato seedlings. To be noted: 100 = 100% disease control, 0 = no control; for pest or weed control at 250 ppm / Test E disease control rating: 250 ppm.
The mark [3] stands for this setting: Blumeria graminis, read-out: Test G disease control rating.
[4] abbreviates: Phakopsora pachyrhizi, read-out: Test A disease control rating.
The mark [5] stands for this setting: Plasmopara viticola, read-out: Test D disease control rating.
The mark [6] stands for this setting: Puccinia recondita, read-out: Test B disease control rating.
The mark [7] stands for this setting: Zymoseptoria tritici, read-out: Test C disease control rating.
Setting [8] is: Phytophthora infestans, in Solanum lycopersicum.
Where [9] appears, read: Botrytis cinerea, read-out: Test E disease control rating.

As for `COc1ccnc(C(=O)N[C@@H](C)C(=O)OC(C)C2CCCCC2)c1OC(C)=O` (mixture of isomers) [Compound 29, N-[[3-(acetyloxy)-4-methoxy-2-pyridinyl]carbonyl]-L-alanine 1-cyclohexylethyl ester], the pest or weed control at 250 ppm in assay [1] (setting [3]) amounted to 0%; in the assay on Phakopsora pachyrhizi (setting [4]), 100%; in the assay on Plasmopara viticola (setting [5]), 17%; in assay [2] (setting [6]), 99%; with Zymoseptoria tritici (setting [7]), 95%; with Phytophthora infestans (setting [8]), 33%. In the assay with Botrytis cinerea (setting [9]), the pest or weed control at 250 ppm turned out to be 0%.
Regarding `COc1ccnc(C(=O)N[C@@H](C)C(=O)OC(C)C2CCCCC2)c1O` (mixture of isomers) [Compound 30, N-[(3-hydroxy-4-methoxy-2-pyridinyl)carbonyl]-L-alanine 1-cyclohexylethyl ester], the pest or weed control at 250 ppm in assay [1] (setting [3]) was 0%; with Phakopsora pachyrhizi (setting [4]), 100%; in the assay with Plasmopara viticola (setting [5]), 1%; in assay [2] (setting [6]) it was 100%; in the assay with Zymoseptoria tritici (setting [7]), 97%; with Phytophthora infestans (setting [8]) it was 0%. For the same compound, the pest or weed control at 250 ppm in the assay with Botrytis cinerea (setting [9]) is 0%.
As to `COc1ccnc(C(=O)N[C@@H](C)C(=O)OC(C)c2ccc(C3CCCCC3)cc2)c1OC(C)=O` (mixture of isomers) [Compound 31, N-[[3-(acetyloxy)-4-methoxy-2-pyridinyl]carbonyl]-L-alanine 1-(4-cyclohexylphenyl)ethyl ester], the pest or weed control at 250 ppm in assay [1] (setting [3]) is 73%; with Phakopsora pachyrhizi (setting [4]), 100%; in the assay with Plasmopara viticola (setting [5]), 1%; in assay [2] (setting [6]), 100%; in the assay on Zymoseptoria tritici (setting [7]), 87%; with Phytophthora infestans (setting [8]), 0%. In the assay on Botrytis cinerea (setting [9]), the pest or weed control at 250 ppm is 0%.
`COc1ccnc(C(=O)N[C@@H](C)C(=O)OC(C)c2ccc(C3CCCCC3)cc2)c1O` (mixture of isomers) [Compound 32, N-[(3-hydroxy-4-methoxy-2-pyridinyl)carbonyl]-L-alanine 1-(4-cyclohexylphenyl)ethyl ester]: the pest or weed control at 250 ppm in assay [1] (setting [3]) is 0%; in the assay on Phakopsora pachyrhizi (setting [4]), 100%; in the assay with Plasmopara viticola (setting [5]), 18%; in assay [2] (setting [6]) it was 99%; with Zymoseptoria tritici (setting [7]), 86%; with Phytophthora infestans (setting [8]), 0%. In addition, the pest or weed control at 250 ppm with Botrytis cinerea (setting [9]) came to 0%.
In the case of `COc1ccnc(C(=O)N[C@@H](C)C(=O)OC(C(C)C)C2CCCCC2)c1OC(C)=O` (mixture of isomers) [Compound 62, N-[[3-(acetyloxy)-4-methoxy-2-pyridinyl]carbonyl]-L-alanine 1-cyclohexyl-2-methylpropyl ester], the pest or weed control at 50 ppm in assay [1] (Blumeria graminis, 50 ppm, read-out: Test G disease control rating) worked out at 0%; with Phakopsora pachyrhizi (Phakopsora pachyrhizi, 50 ppm, read-out: Test A disease control rating), 100%; with Plasmopara viticola (Plasmopara viticola, 50 ppm, read-out: Test D disease control rating), 74%; in assay [2] (Puccinia recondita, 50 ppm, read-out: Test B disease control rating), 93%; in the assay with Zymoseptoria tritici (Zymoseptoria tritici, 50 ppm, read-out: Test C disease control rating), 14%; with Phytophthora infestans (Phytophthora infestans, in Solanum lycopersicum, read-out: Test F disease control rating, 50 ppm), 0%. Moreover, the pest or weed control at 50 ppm with Botrytis cinerea (Botrytis cinerea, 50 ppm, read-out: Test E disease control rating) is 0%.
In the case of `COc1ccnc(C(=O)N[C@@H](C)C(=O)OC(C)c2ccc(C3CC3)cc2)c1O` (mixture of isomers) [Compound 66, N-[(3-hydroxy-4-methoxy-2-pyridinyl)carbonyl]-L-alanine 1-(4-cyclopropylphenyl)ethyl ester], the pest or weed control at 250 ppm was found to be 21% in assay [1] (setting [3]); 100% in the assay on Phakopsora pachyrhizi (setting [4]); 93% with Plasmopara viticola (setting [5]); 100% in assay [2] (setting [6]); 73% in the assay with Zymoseptoria tritici (setting [7]); 0% with Phytophthora infestans (setting [8]). Besides, the pest or weed control at 250 ppm with Botrytis cinerea (setting [9]) came out at 0%.
On to `COc1ccnc(C(=O)N[C@H](C(=O)OC(C)c2ccc(C3CCCCC3)cc2)C(C)C)c1OC(C)=O` (mixture of isomers) [Compound 79, N-[[3-(acetyloxy)-4-methoxy-2-pyridinyl]carbonyl]-L-valine 1-(4-cyclohexylphenyl)ethyl ester], for which the pest or weed control at 250 ppm stood at 0% in assay [1] (setting [3]); 100% with Phakopsora pachyrhizi (setting [4]); 11% in the assay with Plasmopara viticola (setting [5]); 100% in assay [2] (setting [6]); 100% with Zymoseptoria tritici (setting [7]); 0% in the assay with Phytophthora infestans (setting [8]). Also, the pest or weed control at 250 ppm in the assay with Botrytis cinerea (setting [9]) stood at 0%.
Take `CCC(OC(=O)[C@H](C)NC(=O)c1nccc(OC)c1OC(C)=O)C1CCCCC1` (mixture of isomers) [Compound 83, N-[[3-(acetyloxy)-4-methoxy-2-pyridinyl]carbonyl]-L-alanine 1-cyclohexylpropyl ester]: the pest or weed control at 250 ppm in assay [1] (setting [3]) was determined as 0%; in the assay on Phakopsora pachyrhizi (setting [4]), 100%; in the assay on Plasmopara viticola (setting [5]), 27%; in assay [2] (setting [6]), 100%; in the assay on Zymoseptoria tritici (setting [7]), 97%; in the assay on Phytophthora infestans (setting [8]), 0%. The pest or weed control at 250 ppm with Botrytis cinerea (setting [9]) was 0%.
With `CCC(OC(=O)[C@H](C)NC(=O)c1nccc(OC)c1O)C1CCCCC1` (mixture of isomers) [Compound 84, N-[(3-hydroxy-4-methoxy-2-pyridinyl)carbonyl]-L-alanine 1-cyclohexylpropyl ester], the pest or weed control at 250 ppm in assay [1] (setting [3]) stood at 0%; in the assay on Phakopsora pachyrhizi (setting [4]), 100%; in the assay with Plasmopara viticola (setting [5]) it was 21%; in assay [2] (setting [6]), 100%; in the assay on Zymoseptoria tritici (setting [7]), 57%; in the assay with Phytophthora infestans (setting [8]) it was 0%. Also, in the assay on Botrytis cinerea (setting [9]), the pest or weed control at 250 ppm amounted to 0%.
Consider `CCC(OC(=O)[C@H](C)NC(=O)c1nccc(OC)c1OC(C)=O)c1ccc(C2CCCCC2)cc1` (mixture of isomers) [Compound 100, N-[[3-(acetyloxy)-4-methoxy-2-pyridinyl]carbonyl]-L-alanine 1-(4-cyclohexylphenyl)propyl ester], for which the pest or weed control at 250 ppm in assay [1] (setting [3]) worked out at 0%; with Phakopsora pachyrhizi (setting [4]) it was 100%; in the assay on Plasmopara viticola (setting [5]), 32%; in assay [2] (setting [6]), 99%; in the assay with Zymoseptoria tritici (setting [7]), 88%; in the assay on Phytophthora infestans (setting [8]) it was 0%. Moreover, the pest or weed control at 250 ppm with Botrytis cinerea (setting [9]) is 0%.
As to `COc1ccnc(C(=O)N[C@@H](C)C(=O)OC(C)C2CCC(c3ccccc3)CC2)c1OC(C)=O` (mixture of isomers) [Compound 104, N-[[3-(acetyloxy)-4-methoxy-2-pyridinyl]carbonyl]-L-alanine 1-(4-phenylcyclohexyl)ethyl ester], the pest or weed control at 250 ppm in assay [1] (setting [3]) came out at 0%; with Phakopsora pachyrhizi (setting [4]) it was 100%; with Plasmopara viticola (setting [5]) it was 65%; in assay [2] (setting [6]), 100%; in the assay with Zymoseptoria tritici (setting [7]), 93%; with Phytophthora infestans (setting [8]) it was 0%. Also, the pest or weed control at 250 ppm with Botrytis cinerea (setting [9]) was 0%.
Regarding `COc1ccnc(C(=O)N[C@@H](C)C(=O)OC(C)c2ccccc2-c2ccccc2)c1O` (single isomer, unassigned) [Compound 1], the “Test G disease control rating” value in assay [1] was 0%. The “Test A disease control rating” value in the assay on Phakopsora pachyrhizi turned out to be 100%. The “Test D disease control rating” value in the assay with Plasmopara viticola was determined as 36%. In addition, the “Test B disease control rating” value in assay [2] is given as 89%. For the same compound, the “Test C disease control rating” value in the assay with Zymoseptoria tritici is listed as 81%. Also, the “Test F disease control rating” value with Phytophthora infestans came out at 0%. Moreover, the “Test E disease control rating” value with Botrytis cinerea stood at 0%.
As for `COc1ccnc(C(=O)N[C@@H](C)C(=O)OC(C)c2ccccc2-c2ccccc2)c1O` (single isomer, unassigned) [Compound 2], the “Test G disease control rating” value in assay [1] turned out to be 0%. The “Test A disease control rating” value in the assay on Phakopsora pachyrhizi amounted to 99%. In addition, the “Test D disease control rating” value in the assay with Plasmopara viticola stood at 63%. For the same compound, the “Test B disease control rating” value in assay [2] amounted to 55%. In addition, the “Test C disease control rating” value with Zymoseptoria tritici stood at 73%. In the assay on Phytophthora infestans, the “Test F disease control rating” value is recorded as 0%. Also, the “Test E disease control rating” value in the assay with Botrytis cinerea came out at 0%.
For the compound `COc1ccnc(C(=O)N[C@@H](C)C(=O)OC(C)c2cccc(-c3ccccc3)c2)c1O` (single isomer, unassigned) [Compound 3], the “Test G disease control rating” value in assay [1] stood at 0%. Moreover, in the assay with Phakopsora pachyrhizi, the “Test A disease control rating” value came to 100%. Besides, the “Test D disease control rating” value with Plasmopara viticola worked out at 32%. Besides, the “Test B disease control rating” value in assay [2] is 99%. The “Test C disease control rating” value in the assay with Zymoseptoria tritici came to 83%. Further, in the assay with Phytophthora infestans, the “Test F disease control rating” value worked out at 0%. The “Test E disease control rating” value in the assay with Botrytis cinerea is 16%.
